Counter-ions that a name gives are not always drawn. One block for each compound: values may come before it.
Columns and labels:
[1] = tested on: RT-RPA reactions; assay: RT-RPA interference (compatibility) testing of lysis and RNase inhibitor reagents, agarose gel; format: biochemical; design: key: Pass (green) indicates that reagents did not interfere with RT-RPA; Partial Pass: Partial pass (yellow) indicates that reagents had partial interference in RT-RPA; Fail (red) indicates reagents completely interfered with RT-RPA reactions
Method: FIG. 28. Reagent interference testing in RT-RPA. Lysis and RNase inhibitor reagents tested in RT-RPA using cDNA and RNA templates. RT-RPA reactions were prepared with varying concentrations of reagents, as labeled above (final concentrations in a 20 μl RT-RPA reaction are reported). Amplification products were run on a 2% agarose gel and band intensities were compared to control (No added reagent) reactions. Reactions labeled in red contain no reverse transcriptase. The expected size of the CXCL8 amplicon is indicated to the left of the gel. GuHCI=Guanidine hydrochloride, Triton=Triton X-100.
Reagents under consideration for the device were tested for compatibility with RT-RPA at the concentrations expected to be required for lysis. To test for interference, lysis or RNase inhibitor reagents were spiked into RT-RPA reactions with purified cell line RNA or cDNA as a template. Reactions were analyzed by agarose gel for the presence or absence of amplified products. […]

[2] = tested on: saliva RNases; assay: RNase activity assay: cell line RNA incubated with treated saliva, read on Agilent TapeStation; format: biochemical, human; design: key: Pass (green) indicating sufficient RNase inactivation; Partial Pass (yellow) indicating partial RNase inactivation; Fail (red) indicating incomplete RNase inactivation
Method: FIG. 27. Example of saliva RNase activity assays assayed on TapeStation High Sensitivity RNA ScreenTapes (5067; Agilent). Results from three independent assays are shown. Lanes 1-3 (left to right) are experimental controls including 500 μg RNA in RNase free water, untreated saliva without added cell line RNA, and untreated saliva incubated with cell line RNA. Lanes labeled “Incomplete RNase Inactivation” contain no ribosomal RNA bands, indicating RNase activity is present. Lanes labeled “Sufficient RNase Inactivation” contain sharp ribosomal bands (similar to RNA in water), indicating RNases have been inactivated. gDNA=genomic DNA.
(§1) To screen for chemical and protein-based reagents that inhibit saliva RNases, we developed an RNase activity assay in which purified cell line RNA was incubated for 30 min at 37° C. with saliva samples after treatment with potential reagents for RNase inhibition (FIG. 2.5.3). After incubation, RNA was purified and analyzed on an Agilent TapeStation. Sharpness of the eukaryotic ribosomal RNA bands (28S and 18S) were compared to determine RNase activity in the presence of various inhibitors. In addition, the Agilent TapeStation calculates an RNA Integrity Score (RIN) as a measure of RNA quality (RIN of 10-fully intact RNA, RIN of 1=fully degraded RNA), however contaminating nucleic acid (e.g., 16S and 23S rRNA from bacteria) interferes with this calculation.
as §1, with “10=fully” for “10-fully”, “calculation. In total, 54 unique reagents, concentrations, and buffer formulations were tested for their ability to inactivate RNases.” for “calculation.”

[3] = tested on: RT-RPA reaction; assay: RT-RPA efficiency in the presence of Buffer 20 and Buffer 21; format: biochemical; details: 100 mM
Method: FIG. 7. Evaluation of optimized sample treatment and lysis buffer components. (A) RT-RPA efficiency in the presence of Buffer 20 and Buffer 21, using cell line RNA as (+) template and (−) no template control. (B) Optimized early/pre-infection diagnostic sample treatment and lysis tested on 5 individuals. −RT=no reverse transcriptase was included in the RT-RPA reaction, +RT=Superscript IV was added to the RPA reaction at a final concentration of 1 U/μl.
We therefore modified the lysis buffer formulation to Buffer 21 (5 mM TCEP-HCl, 7.5% Tween-20, 0.00167% Digitonin), which removed the guanidine hydrochloride and RNase Inhibitor. […] The present inventors lyophilized Buffer 21 into the selected lysis pad material and processed saliva from five donors through the device (FIG. 7B). This processing included expression of the sample from a collection pad, which pushed the sample through the lysis pad embedded with Buffer 21 and 4 U/μl of mRI, followed by the 10 μm filter, 100 mg of Chelex-100, and 1 μm filter. The resulting sample was used to reconstitute RPA reagents (Twist rehydration buffer and Twist enzymes), and reverse transcriptase and modified RPA primers were added to the reaction.

[4] = tested on: primer dimers in multiplexed RT-RPA; assay: Betaine as additive in multiplexed RT-RPA; format: biochemical; details: preliminary experiments
Source text: A challenge of multiplexed RT-RPA is an increased tendency to form primer dimers that impact the readout on a lateral flow strip. We have explored the use of betaine as an additive to reduce the occurrence of primer dimers. Betaine can prevent the formation of primer dimers in isothermal amplification by effectively lowering the melting temperature of an oligo sequence. […] Thus, betaine may be an effective additive to reduce primer dimers in RT-RPA reactions in certain embodiments.

[5] = 100 mM final in RT-RPA reaction

- Compatibility in RT-RPA, Result ([1]; 1% final in RT-RPA reaction): Pass
- Compatibility in RT-RPA, Result ([1]; 5%-10% final in RT-RPA reaction): Partial Pass
Compound: Triton X-100

Compound: OCCS [beta-mercaptoethanol]
- Inactivation of saliva RNases, Result ([2]; 143 mM): Fail

- Compatibility in RT-RPA, Result ([1]; 0.01% final in RT-RPA reaction): Partial Pass
- Compatibility in RT-RPA, Result ([1]; 0.1% final in RT-RPA reaction): Fail
Compound: CCCCCCCCCCCC(=O)N(C)CC(=O)[O-].[Na+] [sarkosyl]

Compound: N#CS.N=C(N)N [GTC]
- Compatibility in RT-RPA, Result [1, 5]: Fail

Compound: Cl.N=C(N)N [GuHCl, Guanidine hydrochloride]
- Effect on RT-RPA reaction efficiency [3]: reduces the overall efficiency of the RT-RPA reaction
- Compatibility in RT-RPA, Result [1, 5]: Pass
- Compatibility in RT-RPA, Result ([1]; 200 mM final in RT-RPA reaction): Fail

- Compatibility in RT-RPA, Result ([1]; 2 mM final in RT-RPA reaction): Pass
- Compatibility in RT-RPA, Result ([1]; 6 mM final in RT-RPA reaction): Partial Pass
- Compatibility in RT-RPA, Result ([1]; 18 mM final in RT-RPA reaction): Fail
Compound: O=C(O)CN(CCN(CC(=O)O)CC(=O)O)CC(=O)O [EDTA]

Compound: Cl [HCl, Hydrochloric acid]
- Compatibility in RT-RPA, Result ([1]; 5 mM final in RT-RPA reaction): Pass

Compound: O=C(O)CCP(CCC(=O)O)CCC(=O)O [TCEP-neutral]
- Inactivation of saliva RNases, Result ([2]; 5 mM and 50 mM): Fail

Compound: O[C@@H](CS)[C@@H](O)CS [DTT]
- Inactivation of saliva RNases, Result ([2]; 10 mM): Fail

Compound: C[C@@H]1CC[C@@]2(OC1)O[C@H]1[C@@H](O)[C@H]3[C@@H]4CC[C@H]5C[C@@H](O[C@@H]6O[C@H](CO)[C@H](O[C@@H]7O[C@H](CO)[C@@H](O)[C@H](O[C@@H]8OC[C@@H](O)[C@H](O)[C@H]8O)[C@H]7O[C@@H]7O[C@H](CO)[C@H](O)[C@H](O[C@@H]8O[C@H](CO)[C@@H](O)[C@H](O)[C@H]8O)[C@H]7O)[C@H](O)[C@H]6O)[C@H](O)C[C@]5(C)[C@H]4CC[C@]3(C)[C@H]1[C@@H]2C [digitonin]
- Compatibility in RT-RPA, Result ([1]; 1% final in RT-RPA reaction): Pass

Compound: Cl.O=C(O)CCP(CCC(=O)O)CCC(=O)O [TCEP-HCl]
- Inactivation of saliva RNases, Result ([2]; 5 mM and 12.5 mM): Fail
- Inactivation of saliva RNases, Result ([2]; 50 mM): Pass
- Compatibility in RT-RPA, Result ([1]; 5 mM final in RT-RPA reaction): Partial Pass
- Compatibility in RT-RPA, Result ([1]; 10 mM final in RT-RPA reaction): Fail

Compound: C[N+](C)(C)CC(=O)O [betaine]
- Primer noise [4]: can reduce primer noise in multiplexed RT-RPA reactions

- Compatibility in RT-RPA, Result ([1]; 0.005% final in RT-RPA reaction): Fail
Compound: CCCCCCCCCCCCOS(=O)(=O)[O-].[Na+] [SDS, sodium dodecyl sulfate]

- Compatibility in RT-RPA, Result ([1]; 0.01%-0.25% final in RT-RPA reaction): Partial Pass
Compound: IGEPAL

From patent US20260199902A1, “SYSTEM AND APPARATUS FOR THE HAND-HELD AMPLIFICATION AND DETECTION OF NUCLEIC ACIDS” (Darwin Biosciences, Inc., priority 2022, published 2026)
